Experimental data reported in BindingDB's records for doi:10.1016/s0960-894x(99)00217-6 (Palatin Technologies, 1999).

Biological target: T1, Neutrophil elastase (Homo sapiens, UniProt P08246)
T1 sequence (P08246 whole entry): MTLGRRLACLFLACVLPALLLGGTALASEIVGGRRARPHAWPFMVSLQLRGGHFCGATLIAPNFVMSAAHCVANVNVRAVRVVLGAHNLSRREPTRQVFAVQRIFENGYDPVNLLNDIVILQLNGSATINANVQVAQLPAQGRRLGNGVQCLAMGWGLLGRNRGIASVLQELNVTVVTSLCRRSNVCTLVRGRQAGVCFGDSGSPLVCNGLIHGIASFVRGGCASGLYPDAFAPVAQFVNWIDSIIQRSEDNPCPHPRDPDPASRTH
Assay: ChEBML_64294
Text: Kinetic constant for human neutrophil elastase

Row | Ki | SMILES
1 | 194 µM | CC[C@@H](C)/C(NCc1ccccc1)=C(\O)[N]1[C@@H](CCCCNC(=O)C23CC4CC(CC(C4)C2)C3)C(=O)[N]2[C@H](C(=O)N[C@H](C(N)=O)C(C)C)C[S][Re]21=[O] (stereo partly drawn)
2 | 36.7 µM | CC[C@@H](C)/C(NS(=O)(=O)c1ccc(C)cc1)=C(\O)[N]1[C@@H](CCCCNC(=O)C23CC4CC(CC(C4)C2)C3)C(=O)[N]2[C@H](C(=O)N[C@H](C(=O)O)C(C)C)C[S][Re]21=[O] (stereo partly drawn)
3 | 133 µM | CC[C@@H](C)/C(NS(=O)(=O)c1ccc(C)cc1)=C(\O)[N]1[C@@H](CCCCNC(=O)C23CC4CC(CC(C4)C2)C3)C(=O)[N]2[C@H](C(=O)N[C@H](C(N)=O)C(C)C)C[S][Re]21=[O] (stereo partly drawn)
